In patent US5187156A, “Peptide compounds, processes for preparation thereof and pharmaceutical composition comprising the same” (priority 1988, dated 1993):
Non-standard residues stand in square brackets, D forms with d. Residues, ends and D or L forms follow the SMILES beside them. *: point of attachment. Boc = CC(C)(C)OC(=O)*; OBn = c1ccc(CO*)cc1; For = O=C*

Molecular target: T1, Substance P receptor (Cavia porcellus, UniProt P30547)
T1 construct: from tissue; host or cells: guinea pig (male Hartley) trachea and lung, crude membrane fraction
Test: 3H-Substance P receptor binding to guinea pig crude lung membrane preparation
Conditions: test compound 1 μg/ml; 3H-substance P 1 nM; guinea pig crude lung membrane fraction; 4° C., 30 minutes
Description: 1. ^3 H-Substance P receptor binding
(a) Crude lung membrane preparation
Male Hartley strain guinea pigs were sacrificed by decapitation. The trachea and lung were removed and homogenized in buffer (0.25M sucrose, 50 mM Tris-HCl pH 7.5, 0.1 mM EDTA) by using Polytoron (Kinematica). The homogenate was centrifuged (1000 xg, 10 min) to remove tissue clumps and the supernatant was centrifuges (14000 xg 20 min) to yield pellets. The pellets were resuspended in buffer (5 mM Tris-HCl pH 7.5), homogenized with a teflon homogenizer and centrifuged (14000 xg, 20 min) to yield pellets which were referred to as crude membrane fractions. The obtained pellets were stored at -70° C. until use.
(b) ^3 H-Substance P binding to preparative membrane
Frozen crude membrane fractions were thawed and resuspended in Medium 1 (50 mM Tris-HCl pH 7.5, 5 mM MnCl2, 0.02% BSA, 2 μg/ml chymostatin, 4 μg/ml leupeptin, 40 μg/ml bacitracin.) ^3 H-substance P (1 nM) was incubated with 100 μl of the membrane preparation in Medium 1 at 4° C. for 30 minutes in a final volume of 500 µl. At the end of the incubation period, reaction mixture was quickly filtered over a Whatman GF/B glass filter (pretreated with 0.1% polyethylene imine for 3 hours prior to use) under aspiration. The filters were then washed four times with 5 ml of the buffer (50 mM Tris-HCl, pH 7.5). The radioactivity was counted in 5 ml of Aquazol-2 in Packerd scintillation counter (Packerd TRI-CARB 4530).

T1 sequence (P30547 whole entry): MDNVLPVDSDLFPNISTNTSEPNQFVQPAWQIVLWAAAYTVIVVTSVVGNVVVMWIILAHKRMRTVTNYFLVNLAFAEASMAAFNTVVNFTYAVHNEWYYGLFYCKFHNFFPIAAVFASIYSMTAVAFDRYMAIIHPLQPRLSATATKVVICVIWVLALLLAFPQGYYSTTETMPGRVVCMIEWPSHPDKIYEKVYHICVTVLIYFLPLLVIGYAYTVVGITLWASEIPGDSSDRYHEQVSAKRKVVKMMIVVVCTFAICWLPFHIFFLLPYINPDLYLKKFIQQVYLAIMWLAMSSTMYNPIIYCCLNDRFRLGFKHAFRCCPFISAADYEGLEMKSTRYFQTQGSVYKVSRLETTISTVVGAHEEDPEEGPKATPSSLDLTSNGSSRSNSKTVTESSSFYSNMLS

inhibition at 1 µg/mL | Inhibition (%) | Compound
99% |  | CC(C)(C)OC(=O)N[C@@H](CC(N)=O)C(=O)N[C@H](Cc1cn(C=O)c2ccccc12)C(=O)N[C@@H](Cc1ccccc1)C(=O)OCc1ccccc1 [Test Compound (d), Boc-Asn-D-Trp(CHO)-Phe-OBzl] (Boc-Asn-[dW](For)-Phe-OBn)
99% |  | CC(C)(C)OC(=O)N[C@@H](CO)C(=O)N[C@H](Cc1cn(C=O)c2ccccc12)C(=O)N[C@@H](Cc1ccccc1)C(=O)OCc1ccccc1 [Test Compound (e), Boc-Ser-D-Trp(CHO)-Phe-OBzl] (Boc-Ser-[dW](For)-Phe-OBn)
100% |  | CN(C)C(=O)CC[C@H](NC(=O)OC(C)(C)C)C(=O)N[C@H](Cc1cn(C=O)c2ccccc12)C(=O)N[C@@H](Cc1ccccc1)C(=O)OCc1ccccc1 [Test Compound (f), Boc-Glu(NMe2)-D-Trp(CHO)-Phe-OBzl] (Boc-Glu(NMe2)-[dW](For)-Phe-OBn)
100% |  | C[C@@H](O)[C@H](NC(=O)OC(C)(C)C)C(=O)N[C@H](Cc1cn(C=O)c2ccccc12)C(=O)N[C@@H](Cc1ccccc1)C(=O)OCc1ccccc1 [Test Compound (g), Boc-Thr-D-Trp(CHO)-Phe-OBzl] (Boc-Thr-[dW](For)-Phe-OBn)
 | 93% | Z-Gln-D-Trp(CHO) -Phe-OBzl [Test Compound (c)]

The remaining lines, values behind:

Compound | inhibition at 1 µg/mL | Inhibition (%)
CC(C)(C)OC(=O)N[C@@H](CCC(N)=O)C(=O)N[C@H](Cc1cn(C=O)c2ccccc12)C(=O)N[C@@H](Cc1ccccc1)C(=O)OCc1ccccc1 [Test Compound (a), Boc-Gln-D-Trp(CHO)-Phe-OBzl] (Boc-Gln-[dW](For)-Phe-OBn) | 100% | 
CC(=O)N[C@@H](CCC(N)=O)C(=O)N[C@H](Cc1cn(C=O)c2ccccc12)C(=O)N[C@@H](Cc1ccccc1)C(=O)OCc1ccccc1 [Test Compound (b), Ac-Gln-D-Trp(CHO)-Phe-OBzl] (Ac-Gln-[dW](For)-Phe-OBn) | 100% | 
CN(Cc1ccccc1)C(=O)[C@H](Cc1ccccc1)NC(=O)[C@@H](Cc1cn(C=O)c2ccccc12)NC(=O)[C@H](CCC(N)=O)NC(=O)OC(C)(C)C [Test Compound (h), Boc-Gln-D-Trp(CHO)-Phe-NMeBzl] | 100% | 
C[C@@H](O)[C@H](NC(=O)OC(C)(C)C)C(=O)N[C@H](Cc1cn(C=O)c2ccccc12)C(=O)N[C@@H](Cc1ccccc1)C(=O)N(C)Cc1ccccc1 [Test Compound (i), Boc-Thr-D-Trp(CHO)-Phe-NMeBzl] | 100% | 
CN(C)C(=O)CC[C@H](NC(=O)OC(C)(C)C)C(=O)N[C@H](Cc1cn(C=O)c2ccccc12)C(=O)N[C@@H](Cc1ccccc1)C(=O)N(C)Cc1ccccc1 [Test Compound (j), Boc-Glu(NMe2)-D-Trp(CHO)-Phe-NMeBzl] | 100% | 
CC(=O)N[C@H](C(=O)N[C@H](Cc1cn(C=O)c2ccccc12)C(=O)N[C@@H](Cc1ccccc1)C(=O)N(C)Cc1ccccc1)[C@@H](C)O [Test Compound (k), Ac-Thr-D-Trp(CHO)-Phe-NMeBzl] | 100% | 
CC(=O)N[C@@H](CCC(=O)N(C)C)C(=O)N[C@H](Cc1cn(C=O)c2ccccc12)C(=O)N[C@@H](Cc1ccccc1)C(=O)N(C)Cc1ccccc1 [Test Compound (l), Ac-Glu(NMe2)-D-Trp(CHO)-Phe-NMeBzl] | 100% | 
